{"source": "patent US20100129428A1", "about": "“SUPRA MOLECULAR CONSTRUCT FOR DELIVERY OF INTERFERON TO A MAMMAL” (SDG, Inc., priority 2005, published 2010)", "key": {"[1]": {"tested_on": "double stranded RNA dependent protein kinase (PKR) gene", "assay": "Induction of PKR mRNA in liver and spleen of mice, real time quantitative PCR", "assay_type": "in vivo, mouse", "procedure": "The efficacy of HDV-interferon alpha was evaluated in a mouse model having a genetic marker response to the hepatic effect of interferon. C57B16 mice were obtained from Jackson Laboratory and a breeding colony was established at Cleveland MetroHealth Center, Cleveland, Ohio. Mice were obtained from the breeding colony. Two groups of mice, a test group and a control group, were treated. The test group received Interferon+HDV, while the control group received Interferon alone. HDV-Interferon comprised 100 mcg HDV to 10 mcg Interferon alpha. HDV was supplied by Hepasome Pharmaceuticals and Roeferon was the source of the interferon alpha. The HDV and interferon alpha were allowed to equilibrate for 12 hours prior to injection into the mice. Mice from both groups were dosed with 100,000 U/kg body wt. To test the timing of response to IFN, Roferon was subcutaneously injected into the mice. The mice were sacrificed at 6 hours after dosing. The spleen and liver of the sacrificed […] were obtained for analysis. […] The assay used real time quantitative PCR (polymerase chain reaction) to assay the level of PKR messenger ribonucleic acid (mRNA). […] The produced cDNAs were subjected to semi-quantitative PCR, the 6 hour time point was selected for the HDV experiments. […] Real time quantitative PCR was performed on the produced cDNAs using cybr green technology. […]"}, "hepatitis C virus": {"tested_on": "hepatitis C virus", "settings": "chronic hepatitis C; treatment with interferon alone; cited from earlier work"}}, "data": [{"substance": "interferon alpha", "values": [{"measurement": "relative expression level in the spleen compared to the relative expression level in the liver", "setting": "[1]; PKR mRNA, C57B16 mice, 100,000 U/kg body wt, subcutaneous, 6 hours after dosing, FIG. 12a", "result": "approximately twice"}, {"measurement": "increase in PKR activation relative to a baseline", "setting": "[1]; hepatic PKR activation, mouse model, FIG. 13", "result": "~5", "unit": "fold"}, {"measurement": "sustained response", "setting": "hepatitis C virus", "result": "less than 15 % of subjects"}]}]}
